Test results published in patent publication US9670229B2, “5-HT3 receptor antagonists” (Takeda Pharmaceutical Company Limited, priority 2012, dated 2017).

What follows are compounds tested against 5-HT3a receptor expressed in HEK-293T cells (Homo sapiens (Human), UniProt P46098) (assay: Inhibition of Ca flux activity of 5-HT3 in vitro assay). Settings: approximate IC50; calcium flux, 5HT 216 nM, HEK-293T cells transfected with 5-HT3a.
Assay type: cell-based
Method: The 5-HT3 antagonist activity of the compounds of the invention was determined by measuring the ability of the compounds to inhibit the calcium flux activity of […] receptor expressed in HEK-293T cells. HEK-293T cells were transfected with the 5-HT3a expression construct using Xtreme Gene 9 (Roche) in 150 mm tissue culture treated plates and incubated for 24 hours at 37° C. Cells were then split and plated at a density of 60K cells/well in poly-lysine coated, black 96-well plates with clear bottoms (BD BioSciences) and incubated overnight at 37° C. Growth media was removed and cells loaded with 200 uL calcium indicator dye in HBSS containing 20 mM HEPES (Calcium 5 Assay kit, Molecular Devices) and incubated at 37° C. for 1 hour. While cells were incubating, the 10× antagonist and agonist/antagonist addition plates were made. For 10× antagonist plate: half log serial dilutions (final concentrations range from 10^−7 through 10^−10 with the bottom well a negative, no ligand control) were made from test compounds in DMSO at a 1000× concentration and then diluted to 10× in HBSS/20 mM HEPES. For addition plate: 5HT was diluted to 100× in HBSS/20 mM HEPES (final concentration in the assay-216 nM) and 15 uL was added to each well of the addition plate, 15 uL of 10× compound was also added to the addition plate, and finally 120 uL of HBSS/20 mM HEPES (for a total of 150 uL). Cells were then removed from the incubator and equilibrated to room temperature for 10 minutes, then 22.5 uL of 10× test compounds were added in triplicate to the plates and incubated at room temperature for 10 minutes (Tropisetron was used as a positive control in every assay). Test plate and addition plate were loaded into the FlexStation III (Molecular Devices), and using the fluidics, 22.5 uL compound additions were made (at t=˜17 seconds), and fluorescence was measured for 90 seconds, reading every 2.2 seconds. Data sets were analyzed as max minus min using Software Max Pro (Molecular Devices). IC50 curves were generated using non-linear regression in GraphPad Prism.

Chain of 5-HT3a receptor expressed in HEK-293T cells (P46098 24-478): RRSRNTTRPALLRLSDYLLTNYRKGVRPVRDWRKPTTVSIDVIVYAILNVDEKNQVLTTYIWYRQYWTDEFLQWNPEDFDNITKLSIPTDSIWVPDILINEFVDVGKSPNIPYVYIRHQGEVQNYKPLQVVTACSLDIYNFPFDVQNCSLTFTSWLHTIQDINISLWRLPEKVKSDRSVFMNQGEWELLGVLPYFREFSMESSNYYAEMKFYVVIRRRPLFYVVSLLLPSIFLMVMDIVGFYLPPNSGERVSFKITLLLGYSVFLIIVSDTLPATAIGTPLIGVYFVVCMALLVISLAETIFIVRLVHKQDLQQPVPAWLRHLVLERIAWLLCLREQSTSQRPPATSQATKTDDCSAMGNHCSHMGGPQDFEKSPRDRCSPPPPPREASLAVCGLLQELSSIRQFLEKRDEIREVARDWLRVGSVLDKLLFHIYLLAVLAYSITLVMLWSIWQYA

| Compound | IC50 |
| --- | --- |
| CN1[C@@H]2COC[C@H]1C[C@@H](NC(=O)c1cn(-c3ccccn3)c3ccccc13)C2 [Compound 6, N-((1R,5S,7S)-9-methyl-d3-3-oxa-9-azabicyclo[3.3.1]nonan-7-yl)-1-(pyridin-2-yl)-1H-indole-3-carboxamide, 2,2,2-trifluoroacetate] | 1.1 nM |
| CN1[C@@H]2COC[C@H]1C[C@@H](OC(=O)c1cn(-c3cnn(C)c3)c3ccccc13)C2 [Compound 26, (1R,5S,7S)-9-methyl-3-oxa-9-azabicyclo[3.3.1]nonan-7-yl 1-(1-methyl-1H-pyrazol-4-yl)-1H-indole-3-carboxylate] | 1.2 nM |
| CN1[C@@H]2COC[C@H]1C[C@@H](OC(=O)c1cn(-c3cn[nH]c3)c3ccccc13)C2 [Compound 29, (1R,5S,7S)-9-methyl-3-oxa-9-azabicyclo [3.3.1]nonan-7-yl 1-(1H-pyrazol-4-yl)-1H-indole-3-carboxylate] | 0.462 nM |
| CN1[C@@H]2COC[C@H]1C[C@@H](NC(=O)c1cn(-c3ccc[n+]([O-])c3)c3ccccc13)C2 [Compound 32, 3-(3-(((1R,5S,7S)-9-methyl-3-oxa-9-azabicyclo[3.3.1]nonan-7-yl)carbamoyl)-1H-indol-1-yl)pyridine 1-oxide] | 1.36 nM |
| (1R,5S,7S)-9-methyl-3-oxa-9-azabicyclo [3.3.1]nonan-7-yl 1-(1-(2-fluoroethyl)- 1H-pyrazol-4-yl)-1H-indole-3-carboxylate, 2,2,2-trifluoroacetic acid salt [Compound 18] | 2.01 nM |
